In a melting point compilation (Tetko et al.; mined from patent text by program, amines drawn as free bases though some values may be those of a salt):

melting point [°C] | Compound
> 160 | CCCCc1nn2cc(-c3ccccc3)nc2n1Cc1ccc(-c2ccccc2-c2nnn[nH]2)cc1
237 to 239 | Cc1cccc(CNC(=O)c2nc3scc(COCc4ccc(C(=O)O)cc4)c3c(=O)[nH]2)c1
117 to 121 | O=C(CCCCCCn1ccc2ccc([N+](=O)[O-])cc21)NS(=O)(=O)c1ccccc1
> 300 | Nc1nc[nH]c(=O)c1O
236 to 238 | O=C(O)c1sc2cc(OCc3cccnc3)ccc2c1Sc1ccccc1
44 to 46 | CCOC(=O)CC(C)(C)CC(=O)C1CC2=C(CC(C)(C)CC2)N(C2CCCCC2)C1 (centres undefined)
163 to 165 | O=C1CCC(N2C(=O)c3cccc(OCc4ccc(CN5CCN(CC(F)(F)F)CC5)cc4)c3C2=O)C(=O)N1 (centres undefined)
137 to 139 | C#Cc1cnc(OCCC)c(-c2nc3c(CC)nn(CCN4CCOCC4)c3c(=O)[nH]2)c1
267 to 269 | Cc1ccc(S(=O)(=O)NC(=O)C(Cl)Cc2cc(-n3nc(C)n(C(F)F)c3=O)c(F)cc2Cl)cc1 (centres undefined)
88 to 89 | O=C(CCCCCc1ccc(Cl)cc1)N1CCN(c2cnccn2)CC1
128 | c1cn2nc(N3CCCC3)c3c(c2n1)CCCC3
158 to 160 | CN1CCc2c(c3ccccc3n2CCc2nc(-c3ccncc3)cs2)C1
106 to 108 | N#CC(Cc1c(Cl)cccc1Cl)C(=O)O (centres undefined)
140 to 141 | CC(C)(C)C(=O)SC[C@H](NC(=O)C(C)(C)SC(=O)C(C)(C)C)C(=O)O
178 to 179 | Cc1nn(CCO)c(-c2ccc(F)cc2)c1-c1ccc2c(c1)NC(=O)CO2
110 to 111 | CC(=O)c1ccc(OCCCC(=O)O)cc1F
190 to 193 | CCCc1c(/C=C/c2ccccc2C)nc2ccc(C(=O)OC)cn2c1=O
236 to 237 | Nc1ccc(S(=O)(=O)c2cc(-c3ccc(Cl)cc3)nc(N3CCCC3)c2)cc1
105 to 107 | O=C1OC(COc2ccc(Cl)cc2Cl)OC1c1ccccc1 (centres undefined)
130 to 131 | CC1CC(=O)c2c(SCc3ncn(C)n3)ccc(-c3nccs3)c2C1 (centres undefined)

melting point [°C] | Compound
171 to 174 | CC1(C)Oc2cc([N+](=O)[O-])c(NC(=O)Cc3ccc(-c4ccccc4)cc3)cc2C2OC21 (centres undefined)
196 to 197 | NC(=S)Nc1cc(C(F)(F)F)ccc1N1CCOCC1
247 to 248 | C=CC(=O)Nc1ccc2ncnc(Nc3cccc(C)c3)c2c1
66 to 68 | CCOC(=O)C(CC#N)(C(=O)OCC)c1ccc([N+](=O)[O-])cn1
138 | COC(=O)Cc1sc(=S)[nH]c1COc1ccccc1
274 to 275 | c1ccc(Cn2ccnc2-c2nnn[nH]2)cc1
248 | CC1(C)CCCN(C(=O)CN(C(=O)CNC(=O)Nc2cccc(CO)c2)c2ccccc2)C1
97 to 98 | C=CCOc1c(OC)cc([C@H]2CC[C@H](c3cc(OC)c(OC)c(OC)c3)O2)cc1S(C)(=O)=O (relative stereo)
278 to 280 | COc1ccc(Nc2c(C#N)cnc3cc(OC)c(OC)cc23)cc1Cl
57 to 58 | CCCCCC1(C(=O)O)CC2=C(C1)C(C)(C)CCC2(C)C
109 to 110 | CCOC(=O)c1ccc(Sc2cc3c(cc2C)C(C)(C)CCC3(C)C)cc1
166 to 169 | CNCC1(C2(O)CCCC2)Cc2cc3sccc3cc21 (centres undefined)
205 | O=C(O)c1cn(CCCO)c(=O)c2ccccc12
122 to 123 | CCOCC(=NO)C(C)(C)NCCCNC(C)(C)C(Cn1ccnc1[N+](=O)[O-])=NO
129 to 132 | Cc1cc(-c2cc(C(=O)O)c(=O)n(CC(C)C)n2)ccc1F
203 to 204 | CC(C)c1ccc(NC(=O)N(C)C2N(C)C(c3ccc(F)cc3)=NC2(C(F)(F)F)C(F)(F)F)cc1 (centres undefined)
126 to 128 | CC(=O)Nc1cc(O)c(C(=O)CCCCCl)cc1Cl
110 to 117 | Cc1noc(NS(=O)(=O)c2ccccc2-c2ccc(-c3ncco3)cc2CN(C)C(=O)CCc2ccccc2)c1C
194 | Cc1cc2cc(CN3CCCC3)cnc2cc1NC(=O)c1ccc(-c2ccc3ccccc3c2)cc1
214 | O=C(NC(=O)c1ccccc1Cl)Nc1ccc(C(F)(F)F)cc1

melting point [°C] | Compound
266 to 267 | O=C1C(=O)c2ccccc2C2=C1SCC1(CCC(NC(=O)c3cccc(C(F)(F)F)c3)CC1)O2 (centres undefined)
53 to 56 | CC(C#N)Oc1ccc(Oc2ccc(C(F)(F)F)cc2)cc1 (centres undefined)
202 to 203 | O=C(O)c1ccc(Sc2ccc(C(=O)O)c(C(=O)O)c2)cc1C(=O)O
169 to 173 | CC(C)(Cc1ccc(Br)cc1)C(C(=O)O)C(=O)O
190 to 191 | Cc1[nH]cnc1CCNC(=NCCSCc1nc[nH]c1C)NC#N
156 to 157 | CS(=O)(=O)c1ccc(-c2cnn(Cc3cccc([N+](=O)[O-])c3)c(=O)c2-c2ccc(F)cc2)cc1
109 to 115 | COCCOc1cc2ncnc(NC3=CC(=O)C(Oc4ccc(-n5ccnc5)cc4)=CC3=O)c2cc1OCCOC
237 | Cn1c([N+](=O)[O-])cnc1-c1nc2ccccc2n1CCN1CCOCC1
88 to 90 | CCN(CC)CCNC(=O)c1cnc2ccc(I)cc2c1F
105 to 107 | N#CCc1cc2c(cc1CC#N)OCO2
120 to 121 | COc1ccc(CS[C@@H]2CN[C@H](C(N)=O)C2)cc1
190 to 192 | CCOc1cccc(C(COc2ccccc2)n2nc(C(=O)O)c3c2-c2ccc(OCc4cncnc4)cc2CC3)c1 (centres undefined)
198 | COc1ccc(-c2nc3cc(F)ccc3s2)cc1OC(=O)c1ccc([N+](=O)[O-])cc1
271 to 274 | Cc1cc(Cn2cccn2)cc2c1Cc1c(-c3ccsc3)n[nH]c1-2
195 to 197 | NC1=NN(c2ccccc2)C(c2ccccc2)C1 (centres undefined)
143 | CCOC(=O)c1c(O)c2cccnc2n(Cc2ccccc2)c1=O
312 to 313 | Cc1nc2c3c(c(C(=O)NC4CC4)cc2n1C)CCC(c1ccccc1)O3 (centres undefined)
182 to 183 | Cn1c(-c2ccc(OC3CCN(C4CCC4)CC3)cc2)nc2cccnc2c1=O
99 to 101 | O=S(=O)(Nc1cccc(CCOCc2ccc(-c3ccc(Cl)cc3)cc2F)c1)C(F)(F)F

Continued, compound first:

Compound | melting point [°C]
CC(=O)c1cccc(NC=O)c1 | 100 to 102
COc1ccc(N2CCOCC2)c2sc(NC(=O)N(C)C3CCCCCC3)nc12 | 198 to 200
CS(=O)(=O)c1ccc(-c2cnn(CC(F)(F)F)c(=O)c2-c2ccc(F)c(Cl)c2)cc1 | 165 to 166
NS(=O)(=O)c1ccc(-c2noc(-c3cnn4ccc(-c5ccc(C(F)(F)F)cc5)nc34)n2)s1 | 251
[O-][N+](=Cc1ccccc1)CCCCCC[N+]([O-])=Cc1ccccc1 | 105
Cc1cc(N(C)C)ccc1Br | 47 to 49
Clc1ccc(C2(Cn3cncn3)OCCO2)c(Cl)c1Cl | 181
COC(=O)c1nc2c(c(-c3ccccc3)nn2-c2ccccc2)c(N)c1C(=O)OC | 277 to 279
c1ccc(CCN2CCC(CCc3cc(-c4ccccc4)nc4ccccc34)CC2)cc1 | 80
O=C(O)Cc1cccc2c(C3CCCCC3)nccc12 | 178 to 179
CCOP(=O)(OCC)C(CCc1cc(C)nc2cc(-c3ccccc3)nn12)P(=O)(OCC)OCC | 51 to 52
COc1cc2c(cc1Br)C(=CNc1ccc(CN3CCCCC3)cc1)C(=O)NC2=O | 264 to 267
C=CCOc1ccc(Nc2nccc(-c3cccnc3)n2)cc1 | 105 to 108
COC1CCC2C3CCC4CC(=NO)C(C)CC4(C)C3CCC12C (centres undefined) | 203 to 211
N#Cc1c(-c2cccc(C(=O)N3CCOCC3)c2)cc(-c2ccccc2O)nc1NC(=O)c1cccs1 | 253 to 254
Cc1ccccc1NC(=O)Nc1ccc(CNC(=O)OC(C)(C)C)cc1 | 200 to 202
O=C(O)Cn1nnnc1S | 110 to 111
CN1Cc2c(-c3nc(CCl)cs3)ncn2-c2ccc(F)cc2C1=O | 239 to 241
CNc1c2c(nc3ccccc13)CCCC2O (centres undefined) | 160 to 161
O=C(O)C(=NOCc1ccc(Cl)cc1Cl)c1csc(NC(=O)C(F)(F)F)n1 | 170 to 176

Compound | melting point [°C]
CCOCc1nc2c(N)nc3cc(-c4cccc(C(=O)O)c4)ccc3c2n1CC(C)(C)O | > 250
O=CNc1cc(Cl)ccc1C=O | 131 to 136
CC(C)(C)OC(=O)Nc1ccc2nc(N3CCOCC3)nn2c1 | 166
CNC(=N[N+](=O)[O-])SC | 150 to 152
CCOC(=O)C(C(=O)OCC)[C@@H](c1ccccc1)c1c[nH]c2cccc(OC)c12 | 134 to 136
COC(=O)c1c(F)cc(OCCNC(=O)C2Cc3ccccc3N2S(=O)(=O)c2ccc(-c3cc(C(F)(F)F)ccc3Cl)cc2)cc1F (centres undefined) | 78
Nc1ccncc1Nc1cccc2cc[nH]c12 | 68 to 70
O=C1Nc2ccccc2C(c2ccccc2F)=NC1Cc1cccs1 (racemic) | 189 to 191
O=C(NC1CCN(Cc2ccccc2)CC1)c1n[nH]c2ccccc12 | 198 to 200
COC(=O)c1ccc2c(c1)C(=O)CC(C)(COc1ccc([N+](=O)[O-])cc1)O2 (centres undefined) | 144 to 145
Cc1cc(Cl)cc(C(=O)c2ccc(S(C)(=O)=O)cc2Cl)c1O | 175 to 180
Cn1cc(C(=O)Cl)c([N+](=O)[O-])n1 | 68 to 70
CCN(CC)CC1CCCN(CC(=O)N2c3ccccc3C(=O)Nc3cccnc32)C1 (centres undefined) | 199 to 200
COc1ccc(C(=O)O)s1 | 167 to 168
CCCNC(=S)Nc1sccc1C(=O)OC | 123 to 126
OC[C@@H](O)CNCc1ccccc1 | 63
Nc1cc(-c2ccccc2)ccc1Cl | 91 to 92.5
COC(=O)c1cc(Oc2ccnc(Cl)c2)cc2ccccc12 | 103 to 104
CSc1ccc(-n2c(-c3cccnc3)nc(SC)c(C#N)c2=O)cc1 | 212 to 215
OC(CNc1cc(Cl)c(Cl)cc1Cl)Cn1ccnc1 (centres undefined) | 156 to 158
